Assay results published in ChEMBL document CHEMBL4725427, “Synthesis and SAR Studies of 1H-Pyrrolo[2,3-b]pyridine-2-carboxamides as Phosphodiesterase 4B (PDE4B) Inhibitors” (ACS Med Chem Lett, 2020).

Tests used:
[1] = target: cGMP-inhibited 3',5'-cyclic phosphodiesterase 3B (Homo sapiens) (UniProt Q13370); assay: Inhibition of recombinant human N-terminal His-tagged PDE3B (592 to end residues) expressed in baculovirus infected Sf9 cells at 10 uM by radioligand assay relative to control
[2] = target: High affinity cAMP-specific and IBMX-insensitive 3',5'-cyclic phosphodiesterase 8A (Homo sapiens) (UniProt O60658); assay: Inhibition of recombinant human N-terminal GST-tagged PDE8A1 expressed in baculovirus infected Sf9 cells at 10 uM by radioligand assay relative to control
[3] = target: Kappa-type opioid receptor (Homo sapiens) (UniProt P41145); assay: Inhibition of KOR (unknown origin) relative to control; conditions: concentration not given here
[4] = target: 5-hydroxytryptamine receptor 2B (Homo sapiens) (UniProt P41595); assay: Inhibition of 5HT2B (unknown origin) relative to control; conditions: concentration not given here
[5] = target: Mu-type opioid receptor (Homo sapiens) (UniProt P35372); assay: Inhibition of MOR (unknown origin) relative to control; conditions: concentration not given here
[6] = Inhibition of recombinant human N-terminal GST-tagged PDE4A1A (1 to 647 residues) expressed in baculovirus infected Sf9 cells at 10 uM by radioligand assay relative to control
[7] = target: 5-hydroxytryptamine receptor 1A (Homo sapiens) (UniProt P08908); assay: Inhibition of 5HT1A (unknown origin) relative to control; conditions: concentration not given here
[8] = target: Histamine H1 receptor (Homo sapiens) (UniProt P35367); assay: Inhibition of histamine H1 receptor (unknown origin) relative to control; conditions: concentration not given here
[9] = Metabolic stability in mouse liver microsomes assessed as intrinsic clearance; type: ADME, Microsome; conditions: read-out: CLH
[10] = target: Translocator protein TSPO (Homo sapiens) (UniProt P30536); assay: Inhibition of PBR receptor (unknown origin) relative to control; conditions: concentration not given here
[11] = target: D(1B) dopamine receptor (Homo sapiens) (UniProt P21918); assay: Inhibition of D5 (unknown origin) relative to control; conditions: concentration not given here
[12] = target: Alpha-1D adrenergic receptor (Homo sapiens) (UniProt P25100); assay: Inhibition of adrenoceptor alpha 1D (unknown origin) relative to control; conditions: concentration not given here
[13] = target: Muscarinic acetylcholine receptor M1 (Homo sapiens) (UniProt P11229); assay: Inhibition of muscarinic M1 receptor (unknown origin) relative to control; conditions: concentration not given here
[14] = target: T1, Sigma intracellular receptor 2 (Homo sapiens, UniProt Q5BJF2); assay: Inhibition of sigma2 receptor (unknown origin) relative to control; conditions: concentration not given here
[15] = target: 5-hydroxytryptamine receptor 1E (Homo sapiens) (UniProt P28566); assay: Inhibition of 5HT1E (unknown origin) relative to control; conditions: concentration not given here
[16] = target: D(4) dopamine receptor (Homo sapiens) (UniProt P21917); assay: Inhibition of D4 (unknown origin) relative to control; conditions: concentration not given here
[17] = target: 5-hydroxytryptamine receptor 5A (Homo sapiens) (UniProt P47898); assay: Inhibition of 5HT5A (unknown origin) relative to control; conditions: concentration not given here
[18] = target: Muscarinic acetylcholine receptor M5 (Homo sapiens) (UniProt P08912); assay: Inhibition of muscarinic M5 receptor (unknown origin) relative to control; conditions: concentration not given here
[19] = target: 5-hydroxytryptamine receptor 1B (Homo sapiens) (UniProt P28222); assay: Inhibition of 5HT1B (unknown origin) relative to control; conditions: concentration not given here
[20] = target: 5-hydroxytryptamine receptor 2C (Homo sapiens) (UniProt P28335); assay: Inhibition of 5HT2C (unknown origin) relative to control; conditions: concentration not given here
[21] = target: 5-hydroxytryptamine receptor 1D (Homo sapiens) (UniProt P28221); assay: Inhibition of 5HT1D (unknown origin) relative to control; conditions: concentration not given here
[22] = target: Cone cGMP-specific 3',5'-cyclic phosphodiesterase subunit alpha' (Homo sapiens) (UniProt P51160); assay: Inhibition of recombinant human N-terminal GST-tagged PDE6C expressed in baculovirus infected Sf9 cells at 10 uM by radioligand assay relative to control
Rattus norvegicus = species: Rattus norvegicus; assay: Inhibition of rat brain BZP relative to control; type: tissue-based; conditions: dose or concentration not given here
[23] = target: Dual specificity calcium/calmodulin-dependent 3',5'-cyclic nucleotide phosphodiesterase 1A (Homo sapiens) (UniProt P54750); assay: Inhibition of recombinant human N-terminal GST-tagged PDE1A1 expressed in baculovirus infected Sf9 cells at 10 uM by radioligand assay relative to control
[24] = target: Alpha-2A adrenergic receptor (Homo sapiens) (UniProt P08913); assay: Inhibition of adrenoceptor alpha 2A (unknown origin) relative to control; conditions: concentration not given here
[25] = target: High affinity 3',5'-cyclic-AMP phosphodiesterase 7A (Homo sapiens) (UniProt Q13946); assay: Inhibition of recombinant human N-terminal GST-tagged PDE7A1 (122 to end residues) expressed in baculovirus infected Sf9 cells at 10 uM by radioligand assay relative to control
[26] = target: Sodium-dependent dopamine transporter (Homo sapiens) (UniProt Q01959); assay: Inhibition of DAT receptor (unknown origin) relative to control; conditions: concentration not given here
[27] = target: Histamine H2 receptor (Homo sapiens) (UniProt P25021); assay: Inhibition of histamine H2 receptor (unknown origin) relative to control; conditions: concentration not given here
[28] = target: Alpha-2B adrenergic receptor (Homo sapiens) (UniProt P18089); assay: Inhibition of adrenoceptor alpha 2B (unknown origin) relative to control; conditions: concentration not given here
[29] = target: Delta-type opioid receptor (Homo sapiens) (UniProt P41143); assay: Inhibition of DOR receptor (unknown origin) relative to control; conditions: concentration not given here
[30] = target: T1, Sigma intracellular receptor 2; assay: Inhibition of sigma2 receptor (unknown origin)
[31] = target: cAMP and cAMP-inhibited cGMP 3',5'-cyclic phosphodiesterase 10A (Homo sapiens) (UniProt Q9Y233); assay: Inhibition of recombinant human N-terminal GST-tagged PDE10A1 (2 to 789 residues) expressed in baculovirus infected Sf9 cells at 10 uM by radioligand assay relative to control
[32] = target: 5-hydroxytryptamine receptor 6 (Homo sapiens) (UniProt P50406); assay: Inhibition of 5HT6 (unknown origin) relative to control; conditions: concentration not given here
[33] = target: cAMP and cAMP-inhibited cGMP 3',5'-cyclic phosphodiesterase 10A (Homo sapiens) (UniProt Q9Y233); assay: Inhibition of recombinant human N-terminal GST-tagged PDE10A2 expressed in baculovirus infected Sf9 cells at 10 uM by radioligand assay relative to control
[34] = target: D(2) dopamine receptor (Homo sapiens) (UniProt P14416); assay: Inhibition of D2 (unknown origin) relative to control; conditions: concentration not given here
[35] = target: Alpha-1A adrenergic receptor (Homo sapiens) (UniProt P35348); assay: Inhibition of adrenoceptor alpha 1A (unknown origin) relative to control; conditions: concentration not given here
[36] = target: Alpha-1B adrenergic receptor (Homo sapiens) (UniProt P35368); assay: Inhibition of adrenoceptor alpha 1B (unknown origin) relative to control; conditions: concentration not given here
[37] = target: cGMP-specific 3',5'-cyclic phosphodiesterase (Homo sapiens) (UniProt O76074); assay: Inhibition of recombinant human N-terminal GST-tagged PDE5A1 expressed in baculovirus infected Sf9 cells at 10 uM by radioligand assay relative to control
[38] = Metabolic stability in human Hepatocyte assessed as half life; type: ADME, tissue-based; conditions: hepatocytes
[39] = Protein binding in human plasma assessed as unbound fraction; type: ADME, cell-free
[40] = target: Muscarinic acetylcholine receptor M4 (Homo sapiens) (UniProt P08173); assay: Inhibition of muscarinic M4 receptor (unknown origin) relative to control; conditions: concentration not given here

T1 sequence (Q5BJF2 whole entry): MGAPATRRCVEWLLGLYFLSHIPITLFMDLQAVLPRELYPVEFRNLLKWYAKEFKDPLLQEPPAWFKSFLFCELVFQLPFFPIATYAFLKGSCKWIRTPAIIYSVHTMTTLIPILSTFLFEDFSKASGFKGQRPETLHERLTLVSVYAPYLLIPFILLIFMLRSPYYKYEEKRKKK
cAMP and cAMP-inhibited cGMP 3',5'-cyclic phosphodiesterase 10A (Homo sapiens), sequence (Q9Y233 whole entry, the tested form may be a part): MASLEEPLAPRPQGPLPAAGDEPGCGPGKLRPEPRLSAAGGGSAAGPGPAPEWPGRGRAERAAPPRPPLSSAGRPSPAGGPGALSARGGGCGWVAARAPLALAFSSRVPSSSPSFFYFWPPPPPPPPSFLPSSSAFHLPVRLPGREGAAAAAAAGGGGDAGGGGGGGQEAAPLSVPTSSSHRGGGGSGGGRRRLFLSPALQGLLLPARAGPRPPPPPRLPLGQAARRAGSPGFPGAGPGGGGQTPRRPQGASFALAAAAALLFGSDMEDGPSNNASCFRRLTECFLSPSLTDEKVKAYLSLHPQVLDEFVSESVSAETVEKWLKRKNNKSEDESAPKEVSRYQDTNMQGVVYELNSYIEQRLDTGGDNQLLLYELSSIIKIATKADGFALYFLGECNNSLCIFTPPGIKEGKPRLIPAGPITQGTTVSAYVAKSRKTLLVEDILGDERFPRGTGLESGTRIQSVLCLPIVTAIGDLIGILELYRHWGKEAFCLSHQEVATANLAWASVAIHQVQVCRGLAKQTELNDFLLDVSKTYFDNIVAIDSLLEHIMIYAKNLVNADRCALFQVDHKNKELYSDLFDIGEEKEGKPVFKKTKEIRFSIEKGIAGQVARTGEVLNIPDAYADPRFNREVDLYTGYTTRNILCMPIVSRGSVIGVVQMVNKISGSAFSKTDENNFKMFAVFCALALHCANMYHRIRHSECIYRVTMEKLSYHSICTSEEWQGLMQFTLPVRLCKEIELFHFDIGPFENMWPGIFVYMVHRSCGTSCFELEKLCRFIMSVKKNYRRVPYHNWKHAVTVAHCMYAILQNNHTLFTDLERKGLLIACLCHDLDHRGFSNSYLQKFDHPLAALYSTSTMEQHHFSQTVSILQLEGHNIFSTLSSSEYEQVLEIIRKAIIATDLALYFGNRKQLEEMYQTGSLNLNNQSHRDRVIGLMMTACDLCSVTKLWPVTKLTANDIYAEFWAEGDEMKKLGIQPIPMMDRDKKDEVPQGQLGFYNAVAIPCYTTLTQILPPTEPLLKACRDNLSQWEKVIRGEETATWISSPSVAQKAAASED
Muscarinic acetylcholine receptor M5 (Homo sapiens), sequence (P08912 whole entry): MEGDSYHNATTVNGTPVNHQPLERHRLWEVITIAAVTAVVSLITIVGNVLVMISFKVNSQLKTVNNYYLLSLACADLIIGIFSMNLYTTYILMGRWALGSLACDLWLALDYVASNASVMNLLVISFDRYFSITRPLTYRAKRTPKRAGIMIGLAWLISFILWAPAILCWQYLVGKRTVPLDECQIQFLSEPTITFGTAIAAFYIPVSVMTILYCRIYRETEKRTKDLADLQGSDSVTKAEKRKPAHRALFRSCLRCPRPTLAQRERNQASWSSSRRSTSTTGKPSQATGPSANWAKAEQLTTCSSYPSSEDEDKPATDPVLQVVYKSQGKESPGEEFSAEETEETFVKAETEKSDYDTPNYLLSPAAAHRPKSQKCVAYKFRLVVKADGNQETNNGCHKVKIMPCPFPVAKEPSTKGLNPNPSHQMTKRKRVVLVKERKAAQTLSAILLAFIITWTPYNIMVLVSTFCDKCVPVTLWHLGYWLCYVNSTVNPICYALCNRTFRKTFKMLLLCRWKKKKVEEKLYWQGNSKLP
High affinity cAMP-specific and IBMX-insensitive 3',5'-cyclic phosphodiesterase 8A (Homo sapiens), sequence (O60658 whole entry): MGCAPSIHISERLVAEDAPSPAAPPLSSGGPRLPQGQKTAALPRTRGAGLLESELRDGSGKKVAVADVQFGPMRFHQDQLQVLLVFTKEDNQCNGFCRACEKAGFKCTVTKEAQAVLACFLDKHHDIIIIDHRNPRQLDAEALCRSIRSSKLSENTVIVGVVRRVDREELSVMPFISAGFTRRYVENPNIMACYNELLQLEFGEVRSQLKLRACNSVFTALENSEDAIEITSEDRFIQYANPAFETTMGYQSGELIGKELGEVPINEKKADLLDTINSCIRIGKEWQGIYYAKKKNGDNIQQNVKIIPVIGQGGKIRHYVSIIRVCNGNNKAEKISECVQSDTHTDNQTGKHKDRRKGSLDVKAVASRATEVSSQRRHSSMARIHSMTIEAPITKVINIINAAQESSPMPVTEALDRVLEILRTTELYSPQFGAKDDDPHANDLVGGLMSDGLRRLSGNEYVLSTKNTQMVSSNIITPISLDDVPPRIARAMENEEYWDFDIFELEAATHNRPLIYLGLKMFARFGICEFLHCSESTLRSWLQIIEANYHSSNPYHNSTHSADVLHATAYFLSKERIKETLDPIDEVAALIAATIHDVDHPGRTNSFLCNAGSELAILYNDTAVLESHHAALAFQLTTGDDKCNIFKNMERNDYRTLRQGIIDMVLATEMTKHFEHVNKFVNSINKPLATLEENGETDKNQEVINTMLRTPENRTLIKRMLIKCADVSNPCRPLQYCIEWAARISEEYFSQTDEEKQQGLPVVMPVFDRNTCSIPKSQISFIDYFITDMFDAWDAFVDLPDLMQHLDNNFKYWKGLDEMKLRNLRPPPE
Kappa-type opioid receptor (Homo sapiens), sequence (P41145 whole entry): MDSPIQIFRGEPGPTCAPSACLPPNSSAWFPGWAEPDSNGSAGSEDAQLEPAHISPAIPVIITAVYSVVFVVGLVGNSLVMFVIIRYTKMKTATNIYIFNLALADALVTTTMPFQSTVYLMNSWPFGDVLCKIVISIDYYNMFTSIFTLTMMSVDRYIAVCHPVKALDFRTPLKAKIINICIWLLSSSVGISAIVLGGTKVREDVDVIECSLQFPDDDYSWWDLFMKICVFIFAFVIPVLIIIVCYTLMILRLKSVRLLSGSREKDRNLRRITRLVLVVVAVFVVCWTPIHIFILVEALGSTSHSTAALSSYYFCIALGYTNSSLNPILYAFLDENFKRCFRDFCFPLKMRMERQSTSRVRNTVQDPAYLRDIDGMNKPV
Dual specificity calcium/calmodulin-dependent 3',5'-cyclic nucleotide phosphodiesterase 1A (Homo sapiens), sequence (P54750 whole entry): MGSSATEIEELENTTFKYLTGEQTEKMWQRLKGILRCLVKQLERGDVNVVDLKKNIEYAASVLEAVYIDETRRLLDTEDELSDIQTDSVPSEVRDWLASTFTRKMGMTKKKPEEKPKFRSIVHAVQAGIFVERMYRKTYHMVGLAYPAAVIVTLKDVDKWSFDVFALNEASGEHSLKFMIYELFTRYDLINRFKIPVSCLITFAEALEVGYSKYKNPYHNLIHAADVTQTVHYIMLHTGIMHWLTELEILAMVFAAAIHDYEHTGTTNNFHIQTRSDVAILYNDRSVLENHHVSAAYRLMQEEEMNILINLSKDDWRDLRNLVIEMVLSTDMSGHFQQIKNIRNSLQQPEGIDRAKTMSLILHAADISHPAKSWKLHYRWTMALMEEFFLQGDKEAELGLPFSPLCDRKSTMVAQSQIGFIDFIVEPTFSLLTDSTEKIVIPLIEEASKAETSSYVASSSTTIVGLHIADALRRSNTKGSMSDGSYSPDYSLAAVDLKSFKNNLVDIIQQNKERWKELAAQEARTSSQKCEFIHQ
Delta-type opioid receptor (Homo sapiens), sequence (P41143 whole entry): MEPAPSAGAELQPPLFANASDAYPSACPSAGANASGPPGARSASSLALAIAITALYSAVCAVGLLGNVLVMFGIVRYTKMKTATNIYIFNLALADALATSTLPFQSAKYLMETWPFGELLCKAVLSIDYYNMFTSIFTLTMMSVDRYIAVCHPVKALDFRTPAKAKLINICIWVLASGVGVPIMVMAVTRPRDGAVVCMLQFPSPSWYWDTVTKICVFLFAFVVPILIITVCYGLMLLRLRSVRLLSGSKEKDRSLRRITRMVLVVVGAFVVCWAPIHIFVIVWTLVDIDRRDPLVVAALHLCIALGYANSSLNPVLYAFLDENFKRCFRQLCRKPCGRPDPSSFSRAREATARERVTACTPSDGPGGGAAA
Alpha-2B adrenergic receptor (Homo sapiens), sequence (P18089 whole entry): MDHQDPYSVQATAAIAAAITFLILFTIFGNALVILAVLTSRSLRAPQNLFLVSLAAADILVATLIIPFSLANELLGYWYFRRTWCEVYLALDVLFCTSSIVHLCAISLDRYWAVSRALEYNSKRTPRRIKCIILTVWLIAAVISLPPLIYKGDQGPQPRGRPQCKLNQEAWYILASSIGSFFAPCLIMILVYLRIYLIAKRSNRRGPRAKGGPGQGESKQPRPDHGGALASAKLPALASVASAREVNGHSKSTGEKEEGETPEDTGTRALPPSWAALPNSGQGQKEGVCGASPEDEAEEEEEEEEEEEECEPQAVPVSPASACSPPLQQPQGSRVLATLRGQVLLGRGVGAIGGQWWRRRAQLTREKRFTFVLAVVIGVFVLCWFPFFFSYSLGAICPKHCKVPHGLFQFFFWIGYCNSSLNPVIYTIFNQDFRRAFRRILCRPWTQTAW
Mu-type opioid receptor (Homo sapiens), sequence (P35372 whole entry, the tested form may be a part): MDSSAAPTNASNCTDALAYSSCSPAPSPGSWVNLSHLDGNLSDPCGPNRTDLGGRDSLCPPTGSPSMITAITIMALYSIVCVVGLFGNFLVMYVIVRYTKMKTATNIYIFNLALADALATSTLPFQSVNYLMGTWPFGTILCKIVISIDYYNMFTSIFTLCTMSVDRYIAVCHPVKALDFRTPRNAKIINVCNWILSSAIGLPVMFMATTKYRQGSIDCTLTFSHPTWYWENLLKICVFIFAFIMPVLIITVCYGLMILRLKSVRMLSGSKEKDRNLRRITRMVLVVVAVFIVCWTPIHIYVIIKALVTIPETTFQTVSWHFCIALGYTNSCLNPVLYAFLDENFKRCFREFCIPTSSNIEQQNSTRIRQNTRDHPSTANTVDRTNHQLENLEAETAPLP
Translocator protein TSPO (Homo sapiens), sequence (P30536 whole entry, looked up): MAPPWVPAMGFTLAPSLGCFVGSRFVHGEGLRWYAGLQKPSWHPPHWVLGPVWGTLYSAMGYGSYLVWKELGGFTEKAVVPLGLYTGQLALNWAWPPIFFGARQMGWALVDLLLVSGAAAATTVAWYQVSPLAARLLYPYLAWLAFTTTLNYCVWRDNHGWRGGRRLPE

## O=C(c1nc2cccnc2n1-c1ccc(Cl)c(Cl)c1)N1CC(F)(F)C1
[1]
  inhibition: 87%
[2]
  inhibition: < 50%
[3]
  inhibition: < 50%
[4]
  inhibition: < 50%
[5]
  inhibition: < 50%
[6]
  inhibition: < 50%
[7]
  inhibition: < 50%
[8]
  inhibition: < 50%
[9]
  CLint scaled: 100 mL/min/kg
[10]
  inhibition: < 50%
[11]
  inhibition: < 50%
[12]
  inhibition: < 50%
[13]
  inhibition: < 50%
[14]
  inhibition: 70%
[15]
  inhibition: < 50%
[16]
  inhibition: < 50%
[17]
  inhibition: < 50%
[18]
  inhibition: < 50%
[19]
  inhibition: < 50%
[20]
  inhibition: 59%
[21]
  inhibition: < 50%
[22]
  inhibition: < 50%
Rattus norvegicus
  inhibition: < 50%
[23]
  inhibition: < 50%
[24]
  inhibition: < 50%
[25]
  inhibition: < 50%
[26]
  inhibition: < 50%
[27]
  inhibition: < 50%
[28]
  inhibition: < 50%
[29]
  inhibition: < 50%
[30]
  IC50: 7.8 µM
[31]
  inhibition: < 50%
[32]
  inhibition: < 50%
[33]
  inhibition: < 50%
[34]
  inhibition: < 50%
[35]
  inhibition: < 50%
[36]
  inhibition: < 50%
[37]
  inhibition: < 50%
[38]
  half-life: 49.4 min
[39]
  fraction unbound: 0.038
[40]
  inhibition: < 50%
